Assay results taken from patent publication US4105785A, “Anti-depressive 2-methyl-4-[(3'-dimethylamino)propylidine]-9,10-dihydrobenzo [4,5]cyclohepta[1,2b]furan compounds” (priority 1976, dated 1978).

Assays:
[1] = system: heat stimulus (hot plate); experiment: Analgesic activity, hot plate method; type: in vivo; conditions: mouse; for ED50: PO, 50% of animals exposed to heat stimulus longer than 5 seconds, read-out: ANALGESIA ED 50
Experimental: (7) Analgesic activity This was assessed on the mouse by the hot plate method. […] [Eddy N. B. and Leimbach D. J., Pharmacol. Exp. Ther., 107, 385-393 (1953)]

[2] = system: stereotypies induced by amphetamine; experiment: Potentialization of stereotypies induced by amphetamine in the rat; type: in vivo; conditions: D-amphetamine 4 mg/kg IP
Experimental: (4) Potentialization of stereotypies induced by amphetamine in the rat.
The administration of D-amphetamine to the rat (4 mg/kg IP) results in stereotyped behaviour which can be potentialized or antogonized by various products.
The values given in table I show the percentage of potentialization. [Lapin I. P. and Schelkunov E. L. (1963) Second International Pharmacological Meeting 1, 205 Pergamon Press].

[3] = system: reserpine-induced hypothermia; experiment: Antagonism to reserpine-induced hypothermia; type: in vivo; conditions: mouse; for HYPOTHERMIA (Reserpine), maximal rise in temperature: reserpine 1 mg/kg IV
Experimental: (2) Antagonism to reserpine-induced hypothermia Administration of reserpine to the mouse (1 mg/kg IV) results in hypothermia which may be antagonized by certain anti-depressants. The values given in table I correspond, for the doses given, to the maximal rise in temperature. [Boissier et al., Therapie 1966, XXI, 109-117]

[4] = system: symptoms of trembling induced by oxotremorine; experiment: Antioxotremoric action in the mouse; type: in vivo; conditions: 100 mg/kg PO, oxotremorine 2 mg/kg IP
[5] = acute toxicity by the oral way in the mouse; conditions: in vivo; for mortality: 600 mg/kg PO, read-out: acute toxicity, deaths; for LD50: PO
Experimental: (1) acute toxicity by the oral way in the mouse
This was evaluated in the mouse by the method of Behrens and Karber [Arch. Exp. Path. Pharm. 177, 379 (1935)]

[6] = system: spontaneous motility; experiment: Spontaneous motility in the mouse; type: in vivo; conditions: 1 hour after administration, 10 minutes
Experimental: (6) Spontaneous motility in the mouse One hour after the administration of the product to be studied, the animals are placed by groups of two in a circular corridor swept by beams of infrared light making it possible to count their movements from one place to another. The number of movements from one place to another is counted for 10 minutes and compared with the score obtained by a control group.

[7] = system: catalepsy induced by prochlorperazine; experiment: antagonism to catalepsy induced by prochlorperazine in the rat; type: in vivo
Text: (3) antagonism to catalepsy induced by prochlorperazine in the rat. Injection of prochlorperazine in the rat induces a cataleptic state which is more or less inhibited by antidepressants. The values given in table I show percentages of inhibition. [Boissier J. R. and Simon P., Therapie (1963), 18, 1257-77]

| SMILES | ED50 [1] | STEREOTYPIES (Amphetamine), percentage of potentialization ([2]; 5 mg/kg IP) | HYPOTHERMIA (Reserpine), maximal rise in temperature ([3]; 25 mg/kg PO) | ANTI-OXOTREMORIC ACTION, percentage of inhibition of trembling symptoms [4] | mortality [5] | SPONTANEOUS MOTILITY, percentage of decrease in number of movements ([6]; 100 mg/kg PO) | CATALEPSY (Prochlorperazine), percentage of inhibition ([7]; 20 mg/kg IP) | ANALGESIA (result in words) [1] | action on reserpine-induced hypothermy (in words) [3] | HYPOTHERMIA (Reserpine), maximal rise in temperature ([3]; 50 mg/kg PO) | LD50 [5] | CATALEPSY (Prochlorperazine), percentage of inhibition ([7]; 40 mg/kg IP) | STEREOTYPIES (Amphetamine), percentage of potentialization ([2]; 20 mg/kg PO) | SPONTANEOUS MOTILITY, percentage of decrease in number of movements ([6]; 80 mg/kg PO) | HYPOTHERMIA (Reserpine), maximal rise in temperature ([3]; 12.5 mg/kg PO) |
| --- | --- | --- | --- | --- | --- | --- | --- | --- | --- | --- | --- | --- | --- | --- | --- |
| Cc1ccc2c(c1)C(=CCCN(C)C)c1cc(C)oc1CC2 [compound no. 2, dimethyl-2,6 [(dimethylamino-3')]-propylidene-4 dihydro-9,10 benzo [4,5] cyclohepta [1,2-b] furan] | 47 mg/kg | +141% | +0.6 °C | -30% | 10% | 84.4% | -44.4% | – | – | – | – | – | – | – | – |
| Cc1cc2c(o1)CCc1ccccc1C2=CCCN(C)C [compound no. 3, methyl-2 [(dimethylamino-3')-propylidene]-4 dihydro-9,10 benzo-[4,5] cyclohepta [1,2-b] furan] | – | +9,2% | – | -75% | – | 84% | – | non specific | significant action | +3 °C | 300 mg/kg | -33.3% | – | – | – |
| CN(C)CCC=C1c2ccccc2CCc2ccccc21 [AMITRIPTYLINE, reference compound] | 16 mg/kg | – | – | -100% | – | – | -33,3% | – | – | +2.5 °C | 250 mg/kg | – | +65% | 80% | – |
| Cc1ccc2c(c1)CCc1oc(C)cc1C2=CCCN(C)C [compound no. 1, dimethyl-2,7 [(dimethylamino-3')propylidene]-4 dihydro-9,10 benzo-[4,5] cyclohepta [1,2-b] furan] | 48 mg/kg | +105% | – | -35% | 10% | 95.3% | -26.1% | – | – | – | – | – | – | – | +1 °C |
